# According to patent US10640495B2, “Heterocycle derivatives having TrkA inhibitory activity” (Shionogi & Co., Ltd., priority 2015, dated 2020):
# Biological target: human TrkA (Homo sapiens (Human), UniProt P04629)
# Test: Human TrkA inhibition assay (Test Example 2)
# Type: biochemical
# Conditions: Table 152, human TrkA inhibition; read-out: IC50_nM
# Summary of the method: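 Mobility-shift readout of phosphorylated versus unphosphorylated fluorescent peptide gave conversion ratio, normalized to DMSO and no-enzyme wells; IC50 by logistic fit of 10- or 15-point 3-fold dilutions. Conditions: 1 nmol/L enzyme, 15 min compound preincubation, then 500 μmol/L ATP plus 1.5 μmol/L peptide, 120 min, 37 °C.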
# human TrkA, sequence (P04629 440-796): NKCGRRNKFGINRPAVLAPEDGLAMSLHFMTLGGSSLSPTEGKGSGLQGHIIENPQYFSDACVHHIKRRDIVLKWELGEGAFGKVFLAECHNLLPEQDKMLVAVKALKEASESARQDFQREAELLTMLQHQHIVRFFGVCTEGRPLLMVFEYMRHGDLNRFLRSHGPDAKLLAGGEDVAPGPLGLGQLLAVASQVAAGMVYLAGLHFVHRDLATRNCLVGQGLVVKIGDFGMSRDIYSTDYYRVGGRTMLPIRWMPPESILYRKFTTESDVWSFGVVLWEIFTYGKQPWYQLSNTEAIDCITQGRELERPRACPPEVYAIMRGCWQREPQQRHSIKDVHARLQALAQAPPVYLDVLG
row,IC50,SMILES
1,< 100 nM,COCCN1C[C@@H](NC(=O)Nc2c(C)c(C3=CCN(C(=O)OC(C)(C)C)CC3)nn2-c2ccccc2)[C@H](c2ccc(F)c(F)c2)O1 (racemic) [Compound I-29]
2,< 100 nM,COCCC1C[C@@H](NC(=O)Nc2c(C)c(-c3ccc(=O)[nH]c3)nn2-c2ccccc2)[C@H](c2ccccc2)O1 (stereo partly drawn) [Compound I-18]
3,< 100 nM,COCC[C@@H]1C[C@@H](NC(=O)Nc2c(C)c(-c3cnn(C)c3)nn2-c2ccccc2)[C@H](c2ccc(F)c(F)c2)O1 (racemic) [Compound I-23]

# Same assay, conditions: Table 153, human TrkA inhibition; read-out: IC50
row,IC50,SMILES
1,< 100 nM,COCCN1C[C@@H](NC(=O)Nc2c(C)c(-c3cnc(OC)nc3)nn2-c2ccccc2)[C@H](c2cnc(Cl)s2)O1 (racemic) [Compound I-157]
2,< 100 nM,CNC(=O)c1cc(-c2nn(-c3ccccc3)c(NC(=O)N[C@@H]3CN(CCOC)O[C@H]3c3cnc(F)c(F)c3)c2C)cn(C)c1=O (racemic) [Compound I-75]
3,< 100 nM,COCCN1C[C@@H](NC(=O)Nc2c(C)c(-c3cnc(OC)c(C(N)=O)c3)nn2-c2ccccc2)[C@H](c2cnc(F)c(F)c2)O1 (racemic) [Compound I-101]
4,< 100 nM,COCC[C@@H]1C[C@@H](NC(=O)Nc2c(C)c(-c3cnc4c(cnn4C)c3)nn2-c2ccccc2)[C@H](c2ccc(F)c(F)c2)O1 (racemic) [Compound I-99]
5,< 100 nM,COCCN1C[C@@H](NC(=O)Nc2c(C)c(-c3cc(COC(C)=O)c(=O)n(C)c3)nn2-c2ccccc2)[C@H](c2cnc(F)c(F)c2)O1 (racemic) [Compound I-80]

# Same assay, conditions: Table 154, human TrkA inhibition; read-out: IC50
row,IC50,SMILES
1,100 to 1000 nM,Cc1c(-c2cnn(C)c2)nn(-c2ccccc2)c1NC(=O)N[C@@H]1CN(CC(F)(F)F)O[C@H]1c1ccc(F)c(F)c1 (racemic) [Compound I-304]
2,< 100 nM,COCCN1C[C@@H](NC(=O)Nc2c(C)c(-c3cc(-c4cn(Cc5ccc(OC)cc5)nn4)c(=O)n(C)c3)nn2-c2ccccc2)[C@H](c2ccc(F)c(F)c2)O1 [Compound I-277]
3,< 100 nM,COCCN1C[C@@H](NC(=O)Nc2c(C)c(-c3cnc(C(N)=O)c(F)c3)nn2-c2ccccc2)[C@H](c2ccc(F)c(F)c2)O1 [Compound I-312]
4,< 100 nM,COCCN1C[C@@H](NC(=O)Nc2c(C)c(-c3cnc(OC)c(C(C)(C)O)c3)nn2-c2ccccc2)[C@H](c2ccnc(F)c2)O1 (racemic) [Compound I-308]
5,< 100 nM,COCCN1C[C@@H](NC(=O)Nc2c(C)c(-c3cnc4c(c3)nc(C#N)n4C)nn2-c2ccccc2)[C@H](c2ccc(F)c(F)c2)O1 [Compound I-222]
6,< 100 nM,COCCN1C[C@@H](NC(=O)Nc2c(C)c(-c3cc(C(N)=O)c(=O)n(C)n3)nn2-c2ccccc2)[C@H](c2ccnc(F)c2)O1 (racemic) [Compound I-301]
7,100 to 1000 nM,COCCC1C[C@@H](NC(=O)Nc2c(C)c(OCC(C)(C)O)nn2-c2ccccc2)[C@H](c2ccccc2)O1 (stereo partly drawn) [Compound I-295]
8,< 100 nM,COCC[C@@H]1C[C@@H](NC(=O)Nc2c(C)c(-c3cnc(NC4CC4)nc3)nn2-c2ccccc2)[C@H](c2ccnc(F)c2)O1 [Compound I-293]
9,< 100 nM,COCCN1C[C@@H](NC(=O)Nc2c(C)c(-c3cnc4c(c3)OCCN4)nn2-c2ccccc2)[C@H](c2ccnc(F)c2)O1 (racemic) [Compound I-281]
10,< 100 nM,COCCN1C[C@@H](NC(=O)Nc2c(C)c(-c3cnc4c(c3)c(C(F)(F)F)nn4C)nn2-c2ccccc2)[C@H](c2ccnc(F)c2)O1 (racemic) [Compound I-264]
11,< 100 nM,COCCN1C[C@@H](NC(=O)Nc2c(C)c(-c3cnc4c(ccc(=O)n4C)c3)nn2-c2ccccc2)[C@H](c2ccc(F)c(F)c2)O1 [Compound I-229]
12,< 100 nM,COCCN1C[C@@H](NC(=O)Nc2c(C)c(-c3cnc(N4CC(O)C4)nc3)nn2-c2ccccc2)[C@H](c2ccc(F)c(F)c2)O1 [Compound I-209]
13,< 100 nM,COCCN1C[C@@H](NC(=O)Nc2c(C)c(-c3cnc4c(c3)nc(C(=O)NCCO)n4C)nn2-c2ccccc2)[C@H](c2ccnc(F)c2)O1 (racemic) [Compound I-225]

# Same assay, conditions: Table 155, human TrkA inhibition; read-out: IC50
row,IC50,SMILES
1,> 1000 nM,COCCN1C[C@@H](NC(=O)Nc2c(C)c(-c3cnn(C)c3)nn2CCO)[C@H](c2ccc(F)c(F)c2)O1 [Compound I-493]
2,< 100 nM,COCCN1C[C@@H](NC(=O)Nc2c(C)c(-c3ccc(N4CCN(C(=O)OC(C)(C)C)CC4)nc3)nn2-c2ccccc2)[C@H](c2ccnc(F)c2)O1 (racemic) [Compound I-372]
3,< 100 nM,COCCN1C[C@@H](NC(=O)Nc2c(C)c(-c3ccc4nc(CO)cn4c3)nn2-c2ccccc2)[C@H](c2ccc(F)c(F)c2)O1 [Compound I-451]
4,< 100 nM,COCCN1C[C@@H](NC(=O)Nc2c(C)c(-c3cnc(N4CCN(C(=O)OCc5ccccc5)CC4)nc3)nn2-c2ccccc2)[C@H](c2ccnc(F)c2)O1 (racemic) [Compound I-371]
5,< 100 nM,COCCN1C[C@@H](NC(=O)Nc2c(C)c(-c3cnc(N4C[C@H]5CC[C@@H](C4)O5)nc3)nn2-c2ccccc2)[C@H](c2ccnc(F)c2)O1 (racemic) [Compound I-486]
6,< 100 nM,COCCN1C[C@@H](NC(=O)Nc2c(C)c(OCc3cnn(C)c3)nn2-c2ccccc2)[C@H](c2ccnc(F)c2)O1 (racemic) [Compound I-472]
7,< 100 nM,COCCN1C[C@@H](NC(=O)Nc2c(C)c(OCC3CNCCO3)nn2-c2ccccc2)[C@H](c2ccnc(F)c2)O1 (stereo partly drawn) [Compound I-500]
8,> 1000 nM,COCCN1C[C@@H](NC(=O)Nc2c(C)c(-c3cnn(C)c3)nn2CCN(C)C)[C@H](c2ccc(F)c(F)c2)O1 [Compound I-494]
9,< 100 nM,COCCN1C[C@@H](NC(=O)Nc2c(C)c(-c3cnc(OC)c(C4(O)CC4)c3)nn2-c2ccccc2)[C@H](c2ccnc(F)c2)O1 (racemic) [Compound I-355]
10,< 100 nM,COCCN1C[C@@H](NC(=O)Nc2c(C)c(-c3cnc(C(=O)OC)c(CF)c3)nn2-c2ccccc2)[C@H](c2ccnc(F)c2)O1 (racemic) [Compound I-435]
11,< 100 nM,COCCN1C[C@@H](NC(=O)Nc2c(C)c(-c3cnc(OC(C)C)nc3)nn2-c2ccccc2)[C@H](c2ccnc(F)c2)O1 (racemic) [Compound I-477]
12,< 100 nM,COCCN1C[C@@H](NC(=O)Nc2c(C)c(-c3cnc4c(c3)c(CO)nn4C)nn2-c2ccccc2)[C@H](c2ccnc(F)c2)O1 (racemic) [Compound I-434]
13,< 100 nM,COCCN1C[C@@H](NC(=O)Nc2c(C)c(-c3cnc4c(c3)OCCO4)nn2-c2ccccc2)[C@H](c2ccnc(F)c2)O1 (racemic) [Compound I-427]
14,< 100 nM,COCCN1C[C@@H](NC(=O)Nc2c(C)c(-c3cnc(C)nc3)nn2-c2ccccc2)[C@H](c2cnc(F)c(F)c2)O1 [Compound I-358]

row,SMILES,IC50
1,COCCN1C[C@@H](NC(=O)Nc2c(C)c(-c3ccc(N4C[C@H]5COC[C@@H](C4)N5C(=O)OC(C)(C)C)nc3)nn2-c2ccccc2)[C@H](c2ccnc(F)c2)O1 (racemic) [Compound I-393],< 100 nM

# Same assay, conditions: Table 156, human TrkA inhibition; read-out: IC50
row,IC50,SMILES
1,< 100 nM,CCN1C[C@@H](NC(=O)Nc2c(C)c(-c3cnc(OC)c(C(=O)NC4CCOCC4)c3)nn2-c2ccccc2)[C@H](c2ccc(F)c(F)c2)O1 (racemic) [Compound I-545]
2,< 100 nM,COc1ncc(-c2nn(-c3ccccc3)c(NC(=O)N[C@@H]3CN(C(C)C)O[C@H]3c3ccc(F)c(F)c3)c2C)cn1 (racemic) [Compound I-527]
3,< 100 nM,CCN1C[C@@H](NC(=O)Nc2c(C)c(-c3cnc4c(c3)oc(=O)n4C)nn2-c2ccccc2)[C@H](c2ccc(F)c(F)c2)O1 (racemic) [Compound I-539]
4,< 100 nM,CNC(=O)c1cc(-c2nn(-c3ccccc3)c(NC(=O)N[C@@H]3CN(CC(F)F)O[C@H]3c3ccc(F)c(F)c3)c2C)cnc1OC (racemic) [Compound I-551]

# Same assay, conditions: Table 157, human TrkA inhibition; read-out: IC50
row,IC50,SMILES
1,< 100 nM,COCCN1C[C@@H](NC(=O)Nc2c(C)c(-c3cnc(N4C[C@H]5C[C@@H]4CO5)nc3)nn2-c2ccccc2)[C@H](c2ccnc(F)c2)O1 [Compound I-590]
2,100 to 1000 nM,CCN1C[C@@H](NC(=O)Nc2c(C)c(OCC(=O)NCCN(C)C)nn2-c2ccccc2)[C@H](c2ccc(F)c(F)c2)O1 (racemic) [Compound I-650]
3,< 100 nM,CCN1C[C@@H](NC(=O)Nc2c(C)c(OCC3CCN(C(=O)COC)CC3)nn2-c2ccccc2)[C@H](c2ccc(F)c(F)c2)O1 (racemic) [Compound I-608]
4,100 to 1000 nM,CCN1C[C@@H](NC(=O)Nc2c(C)c(CCN(C)C)nn2-c2ccccc2)[C@H](c2ccc(F)c(F)c2)O1 (racemic) [Compound I-642]
5,100 to 1000 nM,CCN1C[C@@H](NC(=O)Nc2c(C)c(OC3CN(C)C3)nn2-c2ccccc2)[C@H](c2ccc(F)c(F)c2)O1 (racemic) [Compound I-632]
6,< 100 nM,COCCN1C[C@@H](NC(=O)Nc2c(C)c(-c3cnc(N4CC[C@@H](N(C)C)C4)nc3)nn2-c2ccccc2)[C@H](c2ccnc(F)c2)O1 [Compound I-587]
7,< 100 nM,COCCN1C[C@@H](NC(=O)Nc2c(C)c(-c3cnc(N(C)CCCN(C)C)nc3)nn2-c2ccccc2)[C@H](c2ccnc(F)c2)O1 (racemic) [Compound I-589]

# Same assay, conditions: human TrkA 1 nmol/L, ATP 500 μmol/L, 120 min at 37° C.; read-out: IC50 values (TrkA phosphorylation inhibition)
row,IC50,SMILES
1,8.1 nM,COCC[C@@H]1C[C@@H](NC(=O)Nc2c(C)c(-c3cnc(C)nc3)nn2-c2ccccc2)[C@H](c2ccnc(F)c2)O1 [Compound I-237]
2,2.9 nM,COCC[C@@H]1C[C@@H](NC(=O)Nc2c(C)c(-c3cnn(C)c3)nn2-c2ccccc2)[C@H](c2ccc(F)c(F)c2)O1 [Compound I-25]
3,2.2 nM,CCN1C[C@@H](NC(=O)Nc2c(C)c(-c3cnc(OC)c(C(=O)NC)c3)nn2-c2ccccc2)[C@H](c2ccc(F)c(F)c2)O1 (racemic) [Compound I-406]
4,0.48 nM,COCCN1C[C@@H](NC(=O)Nc2c(C)c(C3=CCN(C(C)=O)CC3)nn2-c2ccccc2)[C@H](c2ccc(F)c(F)c2)O1 [Compound I-39]
